Key:
[1] = test system: patients with Type 2 diabetes mellitus (T2DM); assay: Standardized meal test: 2-hour glucose excursion and 2-hour PPG (Example 2); format: in vivo, human
Experimental: Patients will undergo a standardized meal challenge to assess fasting and postprandial glucose (central laboratory), as well as plasma glucose excursion.
The standardized meal contains approximately 600 kcal and is composed of 50 to 55% carbohydrate, 15 to 20% protein and 25 to 30% fat.
On the day of the standardized meal test, the patients will come to the investigational site in the morning, in fasting conditions for at least 8 hours and must not eat any food or drink, except water, before the scheduled standardized meal test. […] Patient in insulin glargine group will inject their insulin glargine at their usual injection time.
The standardized meal for all patients should be consumed within a 15-minute period. Blood for plasma glucose is drawn 5 times: • 30 minutes prior to the start of the meal and before IMP administration if the IMP is injected before breakfast; • Just before the start of the standardized meal (0 minute), • 30 minutes after the start of the standardized meal, • 60 minutes after the start of the standardized meal, • 120 minutes after the start of the standardized meal.
Similar MMRM method or ANCOVA was applied on continuous secondary efficacy endpoints and Cochran-Mantei-Haenszel method stratified by randomization strata was applied on categorical efficacy endpoints.

[2] = test system: patients with Type 2 diabetes mellitus (T2DM); assay: Patients receiving rescue therapy (Example 2); format: in vivo, human
Text: Routing measurements and central lab alerts were set up to ensure that glycemic parameters remained under thresholds values predefined for rescue therapy. If values were above these thresholds, and no explanations were found, or appropriate actions failed, or a dose >60 U was necessary to decrease glycemic parameters below the threshold values, rescue therapy was to be introduced along with IMP and metformin (if taken). Newly initiated anti-diabetic medications, or an increase from baseline in background metformin dose were considered as rescue therapy.

[3] = test system: patients with T2DM; assay: Increased calcitonin reported on AE form (Example 3); format: in vivo, human
Text: During the course of the study, if calcitonin value is found […] (5.9 pmol/L): • A retest should be performed by the central laboratory within 7 days. In addition, blood should be collected and sent to the central laboratory for measurement of: calcium, phosphorus, gastrin, Thyroid Stimulating Hormone (TSH), and anti-thyroid peroxidase (anti-TPO) antibodies. • The clinical and laboratory documentations listed below are to be collected and recorded in source documents as soon as possible: • Potential false positive circumstances: smoking status, proton-pump inhibitor treatments (eg, omeprazole), autoimmune thyroid diseases (Hashimoto's thyroiditis or Grave's disease), differentiated thyroid cancer, hypercalcemia, hypergastrinemia, chronic renal insufficiency (not on dialysis), other neuro-endocrine tumors (lung small cell cancer, intestinal carcinoid), acute pulmonary inflammatory conditions, or sepsis; • Specific personal and/or familial medical history in relation to thyroid or other endocrine diseases; • Specific physical examination (neck, thyroid gland).
If the retest confirms that the calcitonin value is […]: • The event must be reported in the e-CRF on the specific AE form and specific complementary form for “increased calcitonin […]” with all appropriate clinical and laboratory documentation. • An ultrasound scan of the thyroid should be performed and the patient may be referred to a thyroid specialist if judged necessary. • The patient should continue to be followed according to protocol schedule (including planned calcitonin measurements). […] As far as possible, blood should be collected 1 to 2 weeks after IMP discontinuation and sent to the central laboratory for calcitonin measurement. • If at any time during follow-up a calcitonin value ≥20 pg/mL increases by 20% or more between 2 assessments (while remaining below 50 pg/mL), a repeated measurement should be performed earlier than scheduled in the protocol, ie, 1 month later. Once results are available, discussion with Sponsor should be initiated without delay for further guidance. 9.6.7 Monitoring of Renal Function in Case of Prolonged and Severe Nausea and Vomiting

[4] = test system: patients with T2DM; assay: ALT increase reported on AE form (Example 3); conditions: on-treatment period
[5] = Example 2, baseline, standardized meal test
[6] = standardized meal test, mITT population
[7] = PT, on-treatment period, Safety population
[8] = on-treatment period, Safety population

Gly(A21)-Arg(B31)-Arg(B32)-human insulin [Insulin Glargine]
2-hour plasma glucose excursion, change from baseline to Week 30 (LOCF), LS Mean (SE) ([1]; ANCOVA, mITT population): −0.18 (0.157) mmol/L
2-hour PPG change from baseline to Week 30 (LOCF) Mean (SD) ([1]; Example 2): −3.26 (3.54) mmol/L
2-hour PPG change from baseline to Week 30 (LOCF) Median ([1]; Example 2): -3.35 mmol/L
2-hour PPG change from baseline to Week 30 (LOCF) LS Mean (SE) ([1]; Example 2, ANCOVA): −3.31 (0.178) mmol/L
2-hour PPG change from baseline to Week 30 (LOCF) LS Mean (SE) ([1]; Example 2, ANCOVA, listed as insulin glargine): -3.31 mmol/L
2-hour postprandial plasma glucose Week 30 (LOCF) Mean (SD) ([1]; Example 2, Week 30 (LOCF)): 11.35 (3.12) mmol/L
2-hour postprandial plasma glucose Week 30 (LOCF) Median ([1]; Example 2, Week 30 (LOCF)): 11.20 mmol/L
2-hour glucose excursion, LS mean change ([1]; Example 2, baseline to Week 30, standardized liquid breakfast meal): -0.18 mmol/L
2-hour postprandial plasma glucose Baseline Mean (SD) [1, 5]: 14.61 (3.64) mmol/L
2-hour postprandial plasma glucose Baseline Median [1, 5]: 14.50 mmol/L
2-hour plasma glucose excursion, Week 30 (LOCF), Mean (SD) [1, 6]: 4.80 (2.90) mmol/L
2-hour plasma glucose excursion, Week 30 (LOCF), Median [1, 6]: 4.70 mmol/L
2-hour plasma glucose excursion, change from baseline to Week 30 (LOCF), Mean (SD) [1, 6]: −0.22 (2.86) mmol/L
2-hour plasma glucose excursion, change from baseline to Week 30 (LOCF), Median [1, 6]: -0.10 mmol/L
Patients who received rescue therapy, % [2]: 3.4%
Patients who received rescue therapy, number [2]: 16 patients
Patients with TEAE of increased calcitonin (≥20 pg/mL) ([3]; Example 3): Two
% of patients with events reported on the AE form for increased calcitonin (≥20 ng/L): Blood calcitonin increased [3, 7]: 0.5%
Number of patients with events reported on the AE form for increased calcitonin (≥20 ng/L): Blood calcitonin increased [3, 7]: 2
% of patients with events reported on the AE form for increased calcitonin (≥20 ng/L): Any [3, 8]: 0.5%
Number of patients with events reported on the AE form for increased calcitonin (≥20 ng/L): Any [3, 8]: 2
Patients with AE of ALT increase ([4]; Example 3): 2 patients
% of patients with events reported on the AE form for ALT increase: Alanine aminotransferase increased ([4]; PT, Safety population): 0.5%
Number of patients with events reported on the AE form for ALT increase: Alanine aminotransferase increased ([4]; PT, Safety population): 2
Number of patients with events reported on the AE form for ALT increase: Hepatic enzyme increased ([4]; PT, Safety population): 0
% of patients with events reported on the AE form for ALT increase: Any ([4]; Safety population): 0.5%
Number of patients with events reported on the AE form for ALT increase: Any ([4]; Safety population): 2

Reference: patent US12186374B2 (Sanofi-Aventis Deutschland GmbH, priority 2014, dated 2025)
